The values that follow come from ChEMBL document CHEMBL1134752 (Bioorg Med Chem Lett, 2001).

In series [1] the target is T1, Prostaglandin G/H synthase 2 (Homo sapiens, UniProt P35354).
T1 sequence (P35354 whole entry): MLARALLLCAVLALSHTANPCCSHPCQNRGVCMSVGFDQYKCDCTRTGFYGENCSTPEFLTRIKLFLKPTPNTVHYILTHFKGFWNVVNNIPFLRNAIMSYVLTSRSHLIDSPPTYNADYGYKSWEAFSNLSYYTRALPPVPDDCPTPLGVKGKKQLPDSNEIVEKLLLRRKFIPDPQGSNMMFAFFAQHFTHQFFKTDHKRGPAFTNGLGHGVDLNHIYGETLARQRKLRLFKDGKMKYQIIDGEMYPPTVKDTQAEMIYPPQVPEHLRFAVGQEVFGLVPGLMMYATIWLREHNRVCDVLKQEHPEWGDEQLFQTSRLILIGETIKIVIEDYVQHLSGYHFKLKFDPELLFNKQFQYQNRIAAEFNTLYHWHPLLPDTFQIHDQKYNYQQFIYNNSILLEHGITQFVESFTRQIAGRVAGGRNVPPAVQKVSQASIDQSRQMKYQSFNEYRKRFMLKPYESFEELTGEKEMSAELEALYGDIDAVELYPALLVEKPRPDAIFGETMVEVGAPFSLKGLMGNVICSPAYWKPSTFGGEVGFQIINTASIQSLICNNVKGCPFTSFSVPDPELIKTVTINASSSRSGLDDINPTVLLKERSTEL
In words: In vitro inhibition of Prostaglandin G/H synthase 2 in human whole blood assay. Type of series: tissue-based.

Series [2] deals with Prostaglandin G/H synthase 1 (Homo sapiens, UniProt P23219). The experiment in a line: In vitro inhibition of Prostaglandin G/H synthase 1 in human whole blood assay. Type of series: tissue-based.
Series [3] in a line: Half-life in human. Type of series: ADME, organism-based. To be noted: in vivo.

In general, IC50 refers to the concentration that gives 50% inhibition. Read a low IC50 as greater potency in that assay. The half-life is the time in which the quantity being followed falls by half. Lower therefore signals fast loss.

Sequence of Prostaglandin G/H synthase 1 (P23219 whole entry): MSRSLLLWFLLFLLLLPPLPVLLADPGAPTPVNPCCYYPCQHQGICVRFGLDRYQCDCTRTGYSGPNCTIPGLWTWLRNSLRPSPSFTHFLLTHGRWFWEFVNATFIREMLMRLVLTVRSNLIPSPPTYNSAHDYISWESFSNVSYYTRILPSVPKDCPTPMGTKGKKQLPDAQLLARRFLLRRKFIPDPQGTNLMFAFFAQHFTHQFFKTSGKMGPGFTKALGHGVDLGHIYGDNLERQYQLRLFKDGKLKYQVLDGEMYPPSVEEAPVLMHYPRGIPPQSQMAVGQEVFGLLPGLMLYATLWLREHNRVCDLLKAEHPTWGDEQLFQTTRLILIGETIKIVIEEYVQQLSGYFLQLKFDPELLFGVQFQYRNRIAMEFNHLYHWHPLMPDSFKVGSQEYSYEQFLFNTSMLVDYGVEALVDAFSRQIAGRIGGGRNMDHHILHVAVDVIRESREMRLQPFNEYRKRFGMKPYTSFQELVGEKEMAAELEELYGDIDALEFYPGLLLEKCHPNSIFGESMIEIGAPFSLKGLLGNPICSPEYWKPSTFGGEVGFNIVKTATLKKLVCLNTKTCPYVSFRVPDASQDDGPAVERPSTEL

For `CS(=O)(=O)c1ccc(-c2cc(Cl)cnc2-c2ccc(C(=O)O)nc2)cc1`, the IC50 in series [1] was 21 µM; in series [2] it was > 100 µM.
The matching figures for `CS(=O)(=O)c1ccc(-c2cc(Cl)cnc2-c2ccc(CO[C@@H]3O[C@@H](C(=O)O)[C@@H](O)[C@H](O)[C@@H]3O)nc2)cc1`: > 33 µM and > 100 µM.
As to `Cc1ccc(-c2ncc(Cl)cc2-c2ccc(S(C)(=O)=O)cc2)cn1` [ETORICOXIB], the IC50 in series [2] was > 100 µM.
`CC(C)OC1=C(c2ccc(S(C)(=O)=O)cc2)C(C)(C)OC1=O` gave a half-life in series [3] of 64 h.
As for `CS(=O)(=O)c1ccc(-c2cc(Cl)cnc2-c2ccc(CO)nc2)cc1`, the IC50 is > 33 µM in series [1] and > 100 µM in series [2].
The matching figures for `Cc1ccc(-c2ncc(Cl)cc2-c2ccc(S(C)(=O)=O)cc2)c[n+]1[O-]`: 18 µM and > 100 µM.
